From patent publication EP3650046A1, “MESENCHYMAL STEM CELL BASED TARGETED ACTIVE INGREDIENT DELIVERY SYSTEM” (Cellis AG, priority 2018, dated 2020)

Columns and labels:
[1] = test system: human cancer cell lines HeLa, SCOV3 or MDA-MB-231; experiment: Delivery of the complex from loaded MSCs to cancer cells in co-culture, flow cytometry; type: cell-based; details: loaded MSCs co-cultured for 24 hours with cancer cells in ratio 2:1, example of results
Procedure: Cancer cell lines HeLa, SKOV3 and MDA-MB-231 were cultures in RPMI, 10%FBS, 1:100 penicillin/streptomycin, 1:100 L-glutamine. Media was changed every 2 days.
For co-culture with MSCs, cancer cells were detached from culture dish using 0,25% Trypsin-EDTA and resuspended in full RPMI media. UC-MSC cells were prepared as described in Example 1 and then mixed 2:1 (200 000:100 000) with cancer cell line and plated on 24-well plate. Co-culture media was a mixture 1:1 of media for MSC and cancer cells.
The results were analysed by flow cytometry. Before setting up the co-culture in every experiment cancer cells were stained with Cell Trace Violet (Thermo Fisher Scientific) in the 1:100 dilution. In experiments with fluorescent cargo (haemoglon-Alexa488 and ferritin-A488) UC-MSC and cancer cells were differentiated by Cell Trace Violet signal. In experiments with ferritin-doxorubicin all cells in co-culture were additionally stained with Draq7 (BioLegend) in order to track viability. Cells were differentiated by Cell Trace Violet.

[2] = test system: Human umbilical Mesenchymal Stem Cells (MSC); experiment: Loading of UC-MSC in suspension with fluorescently labelled iron-binding protein complexes, flow cytometry; type: cell-based; details: MSC at passage five loaded with 0.6 mg/ml
Procedure: Umbilical Cord Mesenchymal Stem cells (UC-MSC) were cultured in DMEM 1000, 1:100 penicillin/streptomycin, 20% FBS, 8 ng/ml bFGF. Media was changed every 2 days. Experiments were carried out on UC-MSCs at passage 5.
Ferritin and haemoglobin complexes were produced as described in WO 2016/207257 (see in particular Examples 5 and 6).
Human UC-MSCs were loaded in suspension with fluorescently labelled haemoglobin-Alexa488, ferritn-Alexa488 or ferritin loaded with anticancer drug doxorubicin (ferritin-doxorubicin) as follows: UC-MSCs were detached from culture dish with 0,25% Trypsin-EDTA then cells were mixed with 0,6 mg/ml of haemoglobin-Alexa488, ferritn-Alexa488 and ferritn-doxorubicin in PBS to final cell density 10^6 per ml. Next cells were incubated for 1 hour at 37 °C, 5% CO2 and washed once in PBS afterwards. Cells were immediately used to set up co-culture with cancer cells.

Substance: Haemoglobin-Alexa488: fluorescently labelled haemoglobin-Alexa488, produced as described in WO 2016/207257
- cancer cells positive for Haemoglobin-Alexa488 ([1]; Fig. 2C): Approximately 96%
- cancer cells positive for Haemoglobin-Alexa488 ([1]; Fig. 3C (Ft- / Ft+ panels)): Approximately 92%
- efficacy of loading of MSC [2]: ≥ 97%
- mean fluorescence intensity in loaded MSC cells versus control group ([2]; fold higher than control group): 4 times
